Starred links: 1 amine or outer side, 2 acyl side, 3 side chain; linkers in the order of their positions; H or OH if unused. Non-standard residues stand in square brackets, D forms with d. Residues, ends and D or L forms follow the SMILES beside them. Groups on a side chain read outwards from the residue. No end group written: not given here. *: point of attachment. C18 diacid = O=C(O)CCCCCCCCCCCCCCCCC(=O)*; γGlu = O=C(O)[C@H](CCC(=O)[*:2])N[*:1]; Palmitoyl = CCCCCCCCCCCCCCCC(=O)*; AEEA = NCCOCCOCC(=O)O; Aib = CC(C)(N)C(=O)O A value given as a limit tells only on which side of the number the result lay.

Two molecules from US12679878B2, “CRF2 receptor agonists and their use in therapy” (SANOFI, priority 2020, dated 2026) can be followed below.

One assay has as its target T1, human CRF2α receptor (Homo sapiens, UniProt Q13324).
T1 construct: expressed in transfected cells; host or cells: TeloHEAC
T1 sequence (Q13324 1-411): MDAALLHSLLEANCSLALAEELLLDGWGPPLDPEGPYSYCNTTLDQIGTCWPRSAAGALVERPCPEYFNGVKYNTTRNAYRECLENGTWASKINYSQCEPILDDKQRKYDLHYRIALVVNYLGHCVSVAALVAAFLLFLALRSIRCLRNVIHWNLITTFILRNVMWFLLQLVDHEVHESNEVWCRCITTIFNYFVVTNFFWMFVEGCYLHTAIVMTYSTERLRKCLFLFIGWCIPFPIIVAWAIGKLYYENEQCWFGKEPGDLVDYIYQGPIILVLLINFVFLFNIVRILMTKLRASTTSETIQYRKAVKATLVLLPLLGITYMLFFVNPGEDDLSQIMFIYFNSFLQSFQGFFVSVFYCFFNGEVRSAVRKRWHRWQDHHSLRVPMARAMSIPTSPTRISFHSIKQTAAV
The assay is described as follows: cAMP agonism at human CRF2 α receptor in TeloHEAC cells (Example 7). Format: cell-based. Particulars: cAMP HTRF, TeloHEAC cells stably expressing human CRF2 α, 0% HSA; read-out: EC50 [nM], 0% HSA. The method, boiled down:
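Steps: thaw and wash cells; suspend in 1×HBSS, 20 mM HEPES, 0 or 0.1% HSA, 2 mM IBMX; add compound, 30 min RT; lyse with HTRF reagents, 1 h; read 665/620 nm. EC50 calculated, E% versus 1000 nM UCN2.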
A general note: TR-FRET usually uses a lanthanide donor and a delayed reading to cut background.

For the next assay, the target named is T2, CRF1R receptor (Homo sapiens, UniProt P34998).
T2 construct: host or cells: CHO-K1 clone 2
T2 sequence (P34998 24-415): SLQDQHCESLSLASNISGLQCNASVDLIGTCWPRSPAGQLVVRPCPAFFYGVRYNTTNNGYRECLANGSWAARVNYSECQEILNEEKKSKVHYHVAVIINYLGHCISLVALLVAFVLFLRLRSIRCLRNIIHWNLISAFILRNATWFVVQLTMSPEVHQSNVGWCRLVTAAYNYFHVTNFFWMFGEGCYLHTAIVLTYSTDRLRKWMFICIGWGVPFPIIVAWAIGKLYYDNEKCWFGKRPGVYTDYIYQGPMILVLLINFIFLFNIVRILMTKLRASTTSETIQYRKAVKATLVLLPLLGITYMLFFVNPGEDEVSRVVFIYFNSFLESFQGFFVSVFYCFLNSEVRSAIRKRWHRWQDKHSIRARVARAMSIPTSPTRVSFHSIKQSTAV
The experiment in a line: cAMP activity at anti-target CRF1R, CHO-K1 cell line clone 2 (Example 19.10). Format: cell-based. Particulars: CRF1R CHO-K1 clone 2. The essentials: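 A CRF1R-overexpressing CHO-K1 line (clone 2) was grown in F12/10% FBS/G418 and frozen in aliquots before use. The cAMP assay followed the preceding procedure, with 100% activation defined by Sauvagine at 100 nM.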

Assay [1] addresses T3, anti-target CRF1R receptor (UniProt P34998 24-415, limits assumed).
T3 sequence (looked up): T2 sequence (P34998 24-415)
The experiment in a line: cell-based or functional assay.

In the case of `CC[C@H](C)[C@H](N)C(=O)N[C@H](C(=O)N[C@@H](CC(C)C)C(=O)N[C@@H](CO)C(=O)N[C@@H](CC(C)C)C(=O)N[C@@H](CC(=O)O)C(=O)N[C@H](C(=O)N1CCC[C@H]1C(=O)N[C@H](C(=O)NCC(=O)N[C@@H](CC(C)C)C(=O)N[C@@H](CCCCNC(=O)COCCOCCNC(=O)COCCOCCNC(=O)CC[C@H](NC(=O)CCCCCCCCCCCCCCCCC(=O)O)C(=O)O)C(=O)N[C@@H](CCC(N)=O)C(=O)N[C@H](C(=O)N[C@@H](CC(C)C)C(=O)N[C@@H](CC(C)C)C(=O)N[C@@H](CCCCN)C(=O)N[C@@H](CCC(N)=O)C(=O)N[C@@H](CCC(=O)O)C(=O)N[C@@H](CCCNC(=N)N)C(=O)N[C@@H](CCC(N)=O)C(=O)N[C@@H](CCCCN)C(=O)N[C@@H](CCCCN)C(=O)NC(C)(C)C(=O)N[C@@H](CCCNC(=N)N)C(=O)N[C@@H](CCC(=O)O)C(=O)N[C@@H](CCC(N)=O)C(=O)N[C@@H](C)C(=O)N[C@@H](CCC(=O)O)C(=O)N[C@H](C(=O)N[C@@H](CC(N)=O)C(=O)N[C@@H](C)C(=O)N[C@@H](CCC(N)=O)C(=O)N[C@H](C(=O)N[C@@H](CC(C)C)C(=O)N[C@@H](C)C(=O)N[C@@H](CCC(N)=O)C(=O)N[C@H](C(N)=O)C(C)C)[C@@H](C)CC)[C@@H](C)O)[C@@H](C)CC)[C@@H](C)CC)C(C)C)C(C)C` [compound 156] (H-IVLSLDVPIGLK([AEEA-AEEA-γGlu-C18 diacid])QILLKQERQKK[Aib]REQAETNAQILAQV-NH2; N-terminus assumed), the EC50 (as a rule, the concentration at which the effect is half-maximal) on human CRF2α receptor was 1.06 nM; at CRF1R receptor (0% HSA, read-out: EC50 [nM] 0% HSA), more than 100 nM. Also, on CRF1R receptor (100% = Sauvagine at 100 nM), the maximum response (Emax) (in general, the maximal effect, on the per cent scale that the assay sets) came to 4%.

B1: peptide of SEQ ID NO: 4 (peptide)
peptide: IVLSLDVPIGLK([γGlu-Palmitoyl])QKLLKQEKQEKEKQQAETNAKILAQV-NH2
modifications: N-terminus assumed
SMILES: CCCCCCCCCCCCCCCC(=O)N[C@@H](CCC(=O)NCCCC[C@H](NC(=O)[C@H](CC(C)C)NC(=O)CNC(=O)[C@@H](NC(=O)[C@@H]1CCCN1C(=O)[C@@H](NC(=O)[C@H](CC(=O)O)NC(=O)[C@H](CC(C)C)NC(=O)[C@H](CO)NC(=O)[C@H](CC(C)C)NC(=O)[C@@H](NC(=O)[C@@H](N)[C@@H](C)CC)C(C)C)C(C)C)[C@@H](C)CC)C(=O)N[C@@H](CCC(N)=O)C(=O)N[C@@H](CCCCN)C(=O)N[C@@H](CC(C)C)C(=O)N[C@@H](CC(C)C)C(=O)N[C@@H](CCCCN)C(=O)N[C@@H](CCC(N)=O)C(=O)N[C@@H](CCC(=O)O)C(=O)N[C@@H](CCCCN)C(=O)N[C@@H](CCC(N)=O)C(=O)N[C@@H](CCC(=O)O)C(=O)N[C@@H](CCCCN)C(=O)N[C@@H](CCC(=O)O)C(=O)N[C@@H](CCCCN)C(=O)N[C@@H](CCC(N)=O)C(=O)N[C@@H](CCC(N)=O)C(=O)N[C@@H](C)C(=O)N[C@@H](CCC(=O)O)C(=O)N[C@H](C(=O)N[C@@H](CC(N)=O)C(=O)N[C@@H](C)C(=O)N[C@@H](CCCCN)C(=O)N[C@H](C(=O)N[C@@H](CC(C)C)C(=O)N[C@@H](C)C(=O)N[C@@H](CCC(N)=O)C(=O)N[C@H](C(N)=O)C(C)C)[C@@H](C)CC)[C@@H](C)O)C(=O)O
For B1, in assay [1], the “EC50[nM] 0% HSA (cAMP, CRF1R-overexpression CHO cells)” value was more than 1000 nM and the “Emax (%) (cAMP, CRF1R-overexpression CHO cells)” value was determined as 17.4%.
